Test system: NOMO1
Test: cell viability relative to DMSO control; higher = less cytotoxic
Settings: 48 h
Summary of the method: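 Viability values are per-plate percentages of DMSO wells, with background from cell-free wells. Library compounds in DMSO were pin-dosed, in an 11-point threefold series from 47 μM to 0.79 nM, onto NOMO1 or SEM (500 cells/well) or P12-Ichikawa (1000 cells/well) leukemia cells in 1536-well plates (5 μl). Those cells had been adapted for at least four passages in each medium, and CellTiter-Glo One luminescence was read after 48 h at 37°C.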

[1] = HPLM + 10% dialyzed FBS, 0.000781 µM
[2] = HPLM + 10% dialyzed FBS, 0.00234 µM
[3] = HPLM + 10% dialyzed FBS, 0.00702 µM
[4] = HPLM + 10% dialyzed FBS, 0.0211 µM
[5] = HPLM + 10% dialyzed FBS, 0.0632 µM
[6] = HPLM + 10% dialyzed FBS, 0.19 µM
[7] = HPLM + 10% dialyzed FBS, 0.569 µM
[8] = HPLM + 10% dialyzed FBS, 1.71 µM
[9] = HPLM + 10% dialyzed FBS, 5.12 µM
[10] = HPLM + 10% dialyzed FBS, 15.4 µM
[11] = HPLM + 10% dialyzed FBS, 46.1 µM
[12] = RPMI 5 mM glucose + 10% FBS, 0.000781 µM
[13] = RPMI 5 mM glucose + 10% FBS, 0.00234 µM
[14] = RPMI 5 mM glucose + 10% FBS, 0.00702 µM
[15] = RPMI 5 mM glucose + 10% FBS, 0.0211 µM
[16] = RPMI 5 mM glucose + 10% FBS, 0.0632 µM
[17] = RPMI 5 mM glucose + 10% FBS, 0.19 µM
[18] = RPMI 5 mM glucose + 10% FBS, 0.569 µM
[19] = RPMI 5 mM glucose + 10% FBS, 1.71 µM
[20] = RPMI 5 mM glucose + 10% FBS, 5.12 µM
[21] = RPMI 5 mM glucose + 10% FBS, 15.4 µM
[22] = RPMI 5 mM glucose + 10% FBS, 46.1 µM
[23] = RPMI 5 mM glucose + 10% dialyzed FBS, 0.000781 µM
[24] = RPMI 5 mM glucose + 10% dialyzed FBS, 0.00234 µM
[25] = RPMI 5 mM glucose + 10% dialyzed FBS, 0.00702 µM
[26] = RPMI 5 mM glucose + 10% dialyzed FBS, 0.0211 µM
[27] = RPMI 5 mM glucose + 10% dialyzed FBS, 0.0632 µM
[28] = RPMI 5 mM glucose + 10% dialyzed FBS, 0.19 µM
[29] = RPMI 5 mM glucose + 10% dialyzed FBS, 0.569 µM
[30] = RPMI 5 mM glucose + 10% dialyzed FBS, 1.71 µM
[31] = RPMI 5 mM glucose + 10% dialyzed FBS, 5.12 µM
[32] = RPMI 5 mM glucose + 10% dialyzed FBS, 15.4 µM
[33] = RPMI 5 mM glucose + 10% dialyzed FBS, 46.1 µM

Row | Structure (SMILES) | cell viability [1] | cell viability [2] | cell viability [3] | cell viability [4] | cell viability [5] | cell viability [6] | cell viability [7] | cell viability [8] | cell viability [9] | cell viability [10] | cell viability [11] | cell viability [12] | cell viability [13] | cell viability [14] | cell viability [15] | cell viability [16] | cell viability [17] | cell viability [18] | cell viability [19] | cell viability [20] | cell viability [21] | cell viability [22] | cell viability [23] | cell viability [24] | cell viability [25] | cell viability [26] | cell viability [27] | cell viability [28] | cell viability [29] | cell viability [30] | cell viability [31] | cell viability [32] | cell viability [33]
1 | O=C(O)c1cc(O)c2c(c1)C(=O)c1cccc(O)c1C2=O | 113% | 111% | 127% | 107% | 127% | 117% | 127% | 125% | 113% | 104% | 94.3% | 115% | 120% | 116% | 121% | 114% | 101% | 103% | 110% | 107% | 99.5% | 104% | 110% | 119% | 102% | 121% | 112% | 107% | 112% | 119% | 119% | 95.4% | 96.2%
2 | COC1=CC=C(C=C1)/C2=C(O)/C(=O)C3=C(O)C=C(O)C(=C3O2)CC=C(C)C | 105% | 120% | 122% | 114% | 132% | 117% | 115% | 127% | 124% | 104% | 130% | – | – | – | – | – | – | – | – | – | – | – | – | – | – | – | – | – | – | – | – | – | –
3 | CCc1ccc(OCc2ccccc2C(=O)Nc2ccc3nc(C)cc(N)c3c2)cc1 | 92.1% | 107% | 105% | 117% | 115% | 118% | 127% | 114% | 15.3% | 6.13% | 4.55% | 103% | 108% | 105% | 108% | 110% | 116% | 112% | 113% | 112% | 7.05% | 4.22% | 109% | 108% | 116% | 117% | 116% | 130% | 124% | 115% | 111% | 6.5% | 4.65%
4 | CC(C)(N)c1ccc(-c2nc3ccccc3nc2-c2ccccc2)cc1 | 112% | 118% | 109% | 68.5% | 27.3% | 22.3% | 12.2% | 8.51% | 7.84% | 5.77% | 5.3% | 96.1% | 116% | 112% | 111% | 69.6% | 14.8% | 14.1% | 6.53% | 11.9% | 4.8% | 5.53% | 102% | 106% | 108% | 113% | 78.7% | 20.3% | 27.9% | 13.2% | 19.3% | 6.51% | 8.7%
5 | COc1ccc(F)c(F)c1C(=O)c1cnc(NC2CCN([S+](C)(=O)[O-])CC2)nc1N | 106% | 135% | 123% | 117% | 119% | 124% | 118% | 93.6% | 45.6% | 7.59% | 3.32% | 104% | 118% | 103% | 102% | 109% | 109% | 100% | 98.9% | 46.3% | 15.1% | 3.38% | 105% | 101% | 102% | 106% | 107% | 102% | 83.8% | 90% | 54.1% | 15% | 2.57%
6 | O=C1NC(=O)/C(=C/c2ccc3nccnc3c2)S1 | 108% | 124% | 116% | 118% | 106% | 118% | 113% | 125% | 102% | 95.9% | 89.3% | 98.4% | 130% | 109% | 107% | 101% | 105% | 111% | 100% | 97.1% | 86.6% | 103% | 118% | 109% | 132% | 110% | 111% | 118% | 103% | 106% | 92.6% | 88.8% | 95.3%
7 | Oc1cc(-c2nc(-c3ccccc3)[nH]c2-c2ccncc2)ccc1Cl | 111% | 119% | 119% | 112% | 123% | 120% | 108% | 84.2% | 78.8% | 49.2% | 21.4% | 106% | 104% | 107% | 107% | 121% | 103% | 109% | 102% | 107% | 87.1% | 32.2% | 101% | 107% | 121% | 107% | 123% | 109% | 104% | 92.1% | 81.3% | 74.8% | 32%
